Data set [1] deals with Plasmodium falciparum. As to the kind of experiment: Antiplasmodial activity against Plasmodium falciparum NF54 assessed as reduction in parasite growth. The class given is functional, organism-based.
Data set [2] has as its system Plasmodium falciparum. As to the kind of experiment: microbe, parasite or virus in culture. The settings on record: 3D7, 72 h.
Data set [3] deals with Plasmodium falciparum. As to the kind of experiment: Antiplasmodial activity against Plasmodium falciparum K1. The class given is functional, organism-based.
For data set [4], the system named is Plasmodium falciparum. The experiment in a line: Antimalarial activity against CQ-resistant Plasmodium falciparum Dd2. Type of data set: functional, organism-based.
Data set [5] in a line: Cytotoxicity against human MRC5 cells assessed as inhibition of cell growth incubated for 72 hrs by MTT assay. Type of data set: toxicity, cell-based. A general note: Formazan colour is commonly taken as a measure of viable cells.
Data set [6] has as its system Plasmodium falciparum. The experiment in a line: Antiplasmodial activity against Plasmodium falciparum Dd2 assessed as reduction in parasite growth measured after 72 hrs by SYBR Green 1 staining based assay. Type of data set: functional, organism-based. As to conditions: Dd2, 72 h.
For data set [7], the system named is HepG2. As to the kind of experiment: Cytotoxicity against human HepG2 cells assessed as reduction in cell viability measured for 48 hrs by SRB assay. Type of data set: functional. On the technique in general: Sulforhodamine B stains cellular protein and so reports cell mass.
In data set [8] the test system is Plasmodium falciparum. As to the kind of experiment: Antimalarial activity against Plasmodium falciparum 3D7 assessed as reduction in malarial growth measured after 48 hrs by SYBR green dye based analysis. The class given is functional, organism-based. As to conditions: 3D7, 48 h.
The test system of data set [9] is Plasmodium falciparum. Type of data set: functional, organism-based. The settings on record: W2.
The subject of data set [10] is Plasmodium falciparum. The experiment in a line: Antimalarial activity against Plasmodium falciparum RKL9. The class given is functional, organism-based.
For data set [11], the system named is Plasmodium falciparum. As to the kind of experiment: microbe, parasite or virus in culture. As to conditions: 3D7, 48 h.
Data set [12] deals with Plasmodium falciparum. The experiment in a line: Antimalarial activity against […] Plasmodium falciparum NF54 assessed as inhibition of parasite growth incubated for 48 hrs by SYBR green dye based flow cytometry. The settings on record: NF54, 48 h. The class given is functional, organism-based. Background: A flow cytometer gives signals particle by particle.

The test system of data set [13] is Plasmodium falciparum. The experiment in a line: Antimalarial activity against Plasmodium falciparum K1 assessed as parasite growth inhibition. The class given is functional, organism-based.
A short description of data set [14]: Cytotoxicity against african green monkey Vero cells assessed as cell viability measured after 48 hrs by MTT assay. The class given is toxicity, cell-based, Chlorocebus sabaeus. The settings on record: chlorocebus sabaeus, time 48 hrs.
In data set [15] the test system is HepG2. The experiment in a line: Cytotoxicity against human HepG2 cells assessed as reduction in cell viability measured for 48 hrs by MTT assay. The class given is functional.
Data set [16] relates to Plasmodium falciparum. As to the kind of experiment: Antiplasmodial activity against multidrug resistant Plasmodium falciparum K1 assessed as reduction in parasite growth by [3H]-hypoxanthine incorporation assay. The class given is functional, organism-based.
Data set [17] relates to Plasmodium falciparum. As to the kind of experiment: Antimalarial activity against Plasmodium falciparum 3D7 assessed as inhibition of parasite growth measured after 72 hrs by SYBR Green I staining based analysis. The class given is functional, organism-based. The settings on record: 3D7, 72 h.
Data set [18] relates to Plasmodium falciparum. As to the kind of experiment: Antiplasmodial activity against Plasmodium falciparum W2 assessed as reduction in parasite growth after 72 hrs by SYBR Green fluorescence assay. Type of data set: functional, organism-based. The settings on record: W2, 72 h.

Molecules are shown by their SMILES. Values after ≈ are worked out from the molar mass of the structure shown.

On to `Oc1ccc(-c2cc(-c3ccc(O)cc3)nc(NCCCCNc3ccnc4cc(Cl)ccc34)n2)cc1`, for which the IC50 (as a rule, the midpoint of a concentration-inhibition curve) in data set [1] worked out at 0.32 µM.

For `Clc1ccc2c(NCCN3CCN(c4ncccn4)CC3)ccnc2c1`, the IC50 was 0.108 µM in data set [2] and 0.277 µM in data set [3].

In data set [4], `COc1ccc2nc(/C=C/c3ccncc3)cc(Cl)c2c1` showed an IC50 of 2.54 µM.

As to `O=c1n(-c2cccc(Cl)c2)nc2c(S(=O)(=O)N3CCCCC3)cccn12`, in [5], the IC50 at 72 h was > 64 µM. Half-maximal inhibition in [3] (IC50) required 2.24 µM.

For the compound `Cc1ccccc1-n1nnnc1C(c1cncnc1)N(Cc1cc(F)cc(C(F)(F)F)c1)C1CC1` (stereo unspecified), the concentration giving a half-maximal response (EC50) (in general, the concentration needed to bring the measured effect to its halfway point) in data set [6] was found to be 1.2 µM. Besides, in [7], the CC50 (commonly the concentration giving 50% cytotoxicity) was found to be 36 µM.

Consider `Cc1cc(C)nc(NS(=O)(=O)c2ccc(-n3cc(COc4cc5oc(=O)cc(C)c5cc4Cl)nn3)cc2)n1`, for which the IC50 in [8] was found to be 8.96 µM.

Take `Cc1ccc(-n2ncc3c(NCCCCN)ncnc32)cc1`: half-maximal inhibition in [9] (IC50) was put at 18.2 µM.

Turning to `C[C@H]1[C@H](OC(=O)CCC(=O)O)O[C@@H]2O[C@@]3(C)CC[C@H]4[C@H](C)CC[C@@H]1[C@@]24OO3` [ARTESUNATE], the half-maximal inhibitory concentration (IC50) in data set [2] came out at 1 µM.

As to `COc1ccc2nc(/C=C/c3ccncc3)cc(NC3CCCCC3)c2c1`, in [4], half-maximal inhibition (IC50) was put at 0.27 µM.

`C(=C\c1cn(-c2ccccc2)nc1-c1ccccc1)/c1nnc(-c2ccncc2)o1`: the IC50 was 0.5 µg/mL in data set [8] and 0.8 µg/mL (≈ 2.04 µM) in data set [10].

On to `COc1ccc(-c2cc(-c3ccc(OC)cc3)nc(N3CCN(c4ccnc5cc(Cl)ccc45)CC3)n2)cc1`, for which the IC50 in [1] is 7.69 µM.

As for `COc1cc(-c2cc(-c3ccco3)nc(S)n2)ccc1OCc1ccccc1`, the IC50 turned out to be 12.2 µg/mL (≈ 31.2 µM) in [11] and 5.4 µg/mL (≈ 13.8 µM) in data set [10].

As for `Cc1cc(C)nc(NS(=O)(=O)c2ccc(-n3cc(COc4ccc5c(-c6ccccc6)c(C)c(=O)oc5c4)nn3)cc2)n1`, the IC50 in data set [8] was > 67.3 µM.

`Cc1ccc(NS(=O)(=O)c2ccc(Nc3cc(C)nc4nc(C(F)(F)F)nn34)cc2)cc1` came in with a 50% inhibitory concentration (IC50) in data set [2] of 0.03 µM.

For the compound `CC[C@H]1CN2CCc3cc(OC)c(OC)cc3[C@@H]2C[C@@H]1C[C@H]1NCCc2cc(OC)c(OC)cc21` [EMETINE], the concentration for half-maximal inhibition (IC50) is 0.25 µM in [12] and 0.65 µM in data set [13].

Turning to `COc1ccc2nc(/C=C/c3ccncc3)cc(N3CCCC3)c2c1`, in [4], the concentration for half-maximal inhibition (IC50) came to 0.36 µM.

Turning to `CC(C)=CCC1=C(OCc2cn(Cc3ccccn3)nn2)C(=O)c2ccccc2C1=O`, the CC50 at 48 h in data set [14] came out at 658 µM.

For `COc1ccc(-c2cc(-c3ccc(OC)c(OC)c3)nc(N3CCN(c4ccnc5cc(Cl)ccc45)CC3)n2)cc1OC`, the IC50 in data set [1] was found to be 6.17 µM.

In the case of `Cc1ccccc1N(C)C(=O)C(c1cccnc1)N(Cc1cccc(SC(F)(F)F)c1)C1CC1` (stereo unspecified), in [7], the half-maximal cytotoxic concentration (CC50) is > 30 µM.

As to `CCc1nnc2ccc(S(=O)(=O)N(Cc3cccc(F)c3)c3ccc(OC)cc3)cn12`, the IC50 at 72 h in data set [5] is 18.2 µM.

In the case of `Cc1ccccc1N(C)C(=O)C(c1cncnc1)N(Cc1cccc(OC(F)(F)F)c1)C1CC1` (stereo unspecified), the CC50 in [15] was > 30 µM. For the same compound, the EC50 in [16] was found to be 0.59 µM.

Take `Cc1ccc(-n2ncc3c(NCCCCNS(=O)(=O)c4ccc(C)cc4)ncnc32)cc1`: the IC50 in data set [9] was determined as 12.2 µM.

Turning to `Clc1ccc2c(NCCn3cc(-c4ccccn4)nn3)ccnc2c1`, the concentration for half-maximal inhibition (IC50) turned out to be 0.62 µM in data set [12] and 0.95 µM in [13].

Regarding `CC(C)=CCC1=C(O)C(=O)c2ccccc2C1=O` [LAPACHOL], in data set [14], the half-maximal cytotoxic concentration (CC50) at 48 h is > 4130 µM.

With `CC1(C)c2nc(-c3ccc(F)cc3)c(Br)n2CCN1C(=O)Cn1cc(-c2ccccn2)nn1`, the IC50 worked out at 73.1 µM in [12] and 88.3 µM in data set [13].

Turning to `O=C1CCCN1c1ccc(-n2nc3c(S(=O)(=O)N4CCOCC4)cccn3c2=O)cc1`, the 50% inhibitory concentration (IC50) at 72 h in data set [5] was > 64 µM. Half-maximal inhibition in [3] (IC50) required 27.8 µM.

For the compound `Cc1cccc(-n2nc3ccc(S(=O)(=O)N4CCC(C)CC4)cn3c2=O)c1`, in data set [5], the IC50 at 72 h was > 64 µM. Inhibition in [3] was half-maximal at 8 µM (IC50).

As to `COc1ccc(-c2cc(-c3ccco3)nc(N)n2)cc1OCc1ccccc1`, the IC50 in data set [11] is 4.4 µg/mL (≈ 11.8 µM); in [10] it was 3.2 µg/mL (≈ 8.57 µM).

Regarding `Cc1ccccc1-n1nnnc1C(c1cccnc1)N(Cc1cc(C(F)(F)F)ccc1F)C1CC1` (stereo unspecified), the EC50 in data set [17] was found to be 0.6 µM.

For the compound `CC(C)=CCC1=C(OCc2cn(-c3cccnc3)nn2)C(=O)c2ccccc2C1=O`, in data set [14], the CC50 at 48 h is 1030 µM.

For the compound `Cc1ccccc1N(C)C(=O)C(c1cccnc1)N(Cc1cccc(C(F)(F)F)c1)C1CC1` (stereo unspecified), the CC50 in [7] is > 20 µM.

In the case of `Cc1cc(Nc2ccc(S(=O)(=O)Nc3ccc(F)cc3)cc2)n2nc(C(F)(F)F)nc2n1`, the IC50 in data set [2] worked out at 0.08 µM.

As to `Cc1cc(C)nc(NS(=O)(=O)c2ccc(-n3cc(COc4ccc5c(C)cc(=O)oc5c4)nn3)cc2)n1`, the half-inhibitory concentration (IC50) in data set [8] worked out at 20.5 µM.

Take `COc1ccc(NC(=O)C(c2ccc(C(F)(F)F)cc2)N2CCN(c3ncnc4sc5c(c34)CCCC5)CC2)cc1` (stereo unspecified): the half-maximal inhibitory concentration (IC50) in data set [18] was found to be 0.05 µM.

These data come from ChEMBL document CHEMBL6087390, “Pyridine and Pyrimidine hybrids as privileged scaffolds in antimalarial drug discovery: A recent development” (Bioorg Med Chem Lett, 2024).
